Test results as given in ChEMBL document CHEMBL5154759, “Discovery of Aryl Benzoyl Hydrazide Derivatives as Novel Potent Broad-Spectrum Inhibitors of Influenza A Virus RNA-Dependent RNA Polymerase (RdRp)” (J Med Chem, 2022).
The source made the active and inactive calls. No cut-off for these calls is given here.

Tests used:
[1] = tested on: Influenza A virus; experiment: microbe, parasite or virus in culture; settings: H5N1, MDCK, 48 h
[2] = tested on: Influenza A virus; settings: mdck
[3] = tested on: Influenza A virus; format: functional, organism-based; settings: H5N1, A549, dose 0.018 µM, time 1.0 hrs
[4] = tested on: Influenza A virus; format: functional, organism-based; settings: H5N1, MDCK, time 12.0 hrs
[5] = Elimination half life in overnight fasted Sprague-Dawley rat at 0.20 ml, iv measured at 0.083 to 24 hrs post dose by LC-MS/MS method; format: ADME, organism-based; settings: in vivo, 0.2 ml, time 0.083-24 hrs, read-out: beta t1/2 (converted)
[6] = Elimination half life in overnight fasted po dosed Sprague-Dawley rat measured at 0.25 to 24 hrs post dose by LC-MS/MS method; format: ADME, organism-based; settings: in vivo, time 0.25-24 hrs, read-out: beta t1/2 (converted)
[7] = Tmax in overnight fasted iv dosed Sprague-Dawley rat plasma measured at 0.083 to 24 hrs post dose by LC-MS/MS method; format: ADME, organism-based; settings: time 0.083-24 hrs
[8] = Tmax in overnight fasted po dosed Sprague-Dawley rat plasma measured at 0.25 to 24 hrs post dose by LC-MS/MS method; format: ADME, organism-based; settings: time 0.25-24 hrs
[9] = Cmax in overnight fasted iv dosed Sprague-Dawley rat plasma measured at 0.083 to 24 hrs post dose by LC-MS/MS method; format: ADME, organism-based; set-up: time upper 24 hrs, time lower 0.083 hrs, route iv
[10] = Cmax in overnight fasted po dosed Sprague-Dawley rat plasma measured at 0.25 to 24 hrs post dose by LC-MS/MS method; format: ADME, organism-based; set-up: time upper 24 hrs, time lower 0.25 hrs, route po
[11] = AUC(0 to t) in overnight fasted iv dosed Sprague-Dawley rat measured at 0.083 to 24 hrs post dose by LC-MS/MS method; format: ADME, organism-based; set-up: time upper 24 hrs, time lower 0.083 hrs, route iv; settings: in vivo
[12] = AUC(0 to t) in overnight fasted po dosed Sprague-Dawley rat measured at 0.25 to 24 hrs post dose by LC-MS/MS method; format: ADME, organism-based; set-up: time 0.25-24 hrs, route po; settings: in vivo
[13] = Clearance in overnight fasted iv dosed Sprague-Dawley rat measured at 0.083 to 24 hrs post dose by LC-MS/MS method; format: ADME, organism-based; settings: in vivo, time 0.083-24 hrs
[14] = AUC(0 to infinity) in overnight fasted iv dosed Sprague-Dawley rat measured at 0.083 to 24 hrs post dose by LC-MS/MS method; format: ADME, organism-based; set-up: time 0.083-24 hrs, route iv; settings: in vivo
[15] = AUC(0 to infinity) in overnight fasted po dosed Sprague-Dawley rat measured at 0.25 to 24 hrs post dose by LC-MS/MS method; format: ADME, organism-based; set-up: time upper 24 hrs, time lower 0.25 hrs, route po; settings: in vivo
[16] = Bioavailability in overnight fasted iv dosed Sprague-Dawley rat measured at 0.083 to 24 hrs post dose by LC-MS/MS method; format: ADME, organism-based; settings: in vivo, time 0.083-24 hrs
[17] = Oral bioavailability in overnight fasted Sprague-Dawley rat measured at 0.25 to 24 hrs post dose by LC-MS/MS method; format: ADME, organism-based; settings: in vivo, time 0.25-24 hrs
[18] = tested on: Influenza A virus; format: functional, organism-based; settings: H5N1, MDCK, dose 0.03-100 µM, time 12.0 hrs, DDE = dose-dependent effect
[19] = tested on: Influenza A virus; format: functional, organism-based; settings: H5N1, MDCK, dose 0.8 µM, time 12.0 hrs
[20] = tested on: Influenza A virus; format: functional; settings: H5N1, MDCK, time 12 hrs
[21] = tested on: Influenza A virus; format: functional, organism-based; settings: H5N1, MDCK, dose 1.0 µM, time 48.0 hrs
[22] = tested on: HEK293T; experiment: Inhibition of influenza A/WSN/H1N1 virus RNA-dependent RNA polymerase activity in human 293 T cells co-transfected with pPOLI-Fluc assessed as reduction of Fluc/Rluc ratio incubated for 48 hrs; format: cell-based; settings: DDE = dose-dependent effect
[23] = tested on: HEK293T; experiment: Inhibition of influenza A/WSN/H1N1 virus RNA-dependent RNA polymerase activity in human 293 T cells co-transfected with pPOLI-Fluc assessed as reduction in luciferase activity incubated for 48 hrs by luciferase reporter gene assay; format: cell-based
[24] = tested on: HEK293T; experiment: Inhibition of influenza A/WSN/H1N1 virus RNA-dependent RNA polymerase activity in human 293 T cells co-transfected with pPOLI-Fluc assessed as reduction in luciferase activity at 0.01 uM incubated for 48 hrs by luciferase reporter gene assay relative to control; format: cell-based
[25] = tested on: HEK293T; experiment: Inhibition of influenza A/WSN/H1N1 virus RNA-dependent RNA polymerase activity in human 293 T cells co-transfected with pPOLI-Fluc assessed as reduction in luciferase activity at 0.1 uM incubated for 48 hrs by luciferase reporter gene assay relative to control; format: cell-based
[26] = Binding affinity to influenza A virus RNA-dependent RNA polymerase PB1 subunit expressed in human 293T cells assessed as dissociation constant by MST assay; settings: hek293t
[27] = tested on: Influenza A virus; format: functional, organism-based; settings: H5N1, MDCK, DDE = dose-dependent effect
[28] = tested on: Influenza A virus; format: functional, organism-based; settings: H5N1, MDCK
[29] = tested on: Influenza A virus; format: functional, A/PR/8/34; settings: dose 20 mg/kg; route ig; time 1 hrs
[30] = tested on: Influenza A virus; format: functional, A/PR/8/34; settings: dose 10 mg/kg; route po; time 1 hrs
[31] = Acute toxicity in BALB/c mouse infected with influenza A virus A/PR/8/34 assessed as reduction in body weight at 2000 mg/kg, po administered 3 times per day; format: organism-based; settings: in vivo
[32] = tested on: A549; experiment: Induction of ROS generation in human A549 cells at 50 ug/ml incubated for 30 mins by DCFH-DA dye based fluorescence microscopy; format: functional, cell-based; settings: dose 50.0 µg/ml

In the case of `N#Cc1ccc(C(=O)NNc2c(Br)cccc2Br)cc1`, the EC50 [1] is reported as greater than 100 µM.

Work on `CCOc1ccc(C(=O)NNc2c(Br)cccc2Br)cc1` yielded an EC50 [1] of 0.034 µM.

Compound `O=C(O)c1ccc(C(=O)NNc2c(Br)cccc2Br)cc1` has an EC50 [1] greater than 100 µM.

Compound `CCOc1ccc(C(=O)N(C)Nc2c(Cl)cccc2Cl)cc1` has an EC50 [1] greater than 100 µM.

`CCOc1ccc(C(=O)NNc2c(C)cccc2C)cc1` showed an EC50 [1] of 0.46 µM.

With `CCN(CC)c1ccc(C(=O)NNc2c(Br)cccc2Br)cc1` the EC50 [1] was 0.0093 µM.

In the case of `CCOc1ccc(C(=O)NNc2c(Br)cc(Br)cc2Br)cc1`, the EC50 [1] is reported as 4.2 µM.

Work on `CN(C)c1ccc(C(=O)NNc2c(Cl)cccc2Cl)cc1` yielded an EC50 [1] of 0.046 µM.

In the case of `CCOc1ccc(C(=O)NNc2c(C)cccc2Cl)cc1`, the EC50 [1] is reported as 0.1 µM.

In the case of `CCOc1ccc(C(=O)NNc2c(Cl)cccc2Cl)cc1`, the EC50 [1] is reported as 0.077 µM.

In the case of `O=C(NNc1c(Cl)cccc1Cl)c1cccs1`, the EC50 [1] is reported as greater than 100 µM.

For `CC(=O)N[C@H]1[C@H]([C@H](O)[C@H](O)CO)OC(C(=O)O)=C[C@@H]1NC(=N)N` [ZANAMIVIR], the EC50 [2] was 0.16 µM and the EC50 [1] was 0.076 µM.

For `CCOc1ccc(C(=O)Nc2c(Br)cccc2Br)cc1`, the EC50 [1] was greater than 100 µM.

With `O=C(NNc1c(Br)cccc1Br)c1ccc(N2CCOCC2)cc1` the Activity [3] was “Active”, the Activity [4] was “Active” and the half-life [5] was 90 min. The half-life [6] was 109 min, the Tmax [7] was 4.8 min and the Tmax [8] was 25.2 min. It also gave a Cmax [9] of 2520 ng/mL, a Cmax [10] of 635 ng/mL and an AUC(0-t) [11] of 1480 ng·h/mL. For the same compound, the AUC(0-t) [12] was 1590 ng·h/mL, the clearance [13] was 33.8 mL/min/kg and the AUC(0-inf) [14] was 1500 ng·h/mL. It also gave an AUC(0-inf) [15] of 1710 ng·h/mL, an F [16] of 100% and a bioavailability [17] of 32.2%. For the same compound, the Activity [18] was “Dde”, the Activity [19] was “Active” and the inhibition at 0.03 µM [20] was greater than 50%. The Activity [21] was “Active”, the Activity [22] was “Dde” and the Activity [23] was “Active”. The inhibition [24] was 60%, the inhibition [25] was 91% and the Kd [26] was 0.351 µM. The Activity [27] was “Dde”, the Activity [28] was “Active” and the Activity [29] was 70%. For the same compound, the Activity [30] was 100%, the Activity [31] was “Toxic” and the Activity [32] was “Active”. The EC50 [1] was 0.018 µM.

`CCCOc1ccc(C(=O)NNc2c(Br)cccc2Br)cc1` showed an EC50 [1] of 0.023 µM.

`Cc1cccc(C)c1NNC(=O)c1ccc(C(C)(C)C)cc1` showed an EC50 [1] of 0.22 µM.

`CCOc1ccc(C(=O)NNc2ccc(Br)cc2)cc1` gave an EC50 [1] greater than 100 µM.

`COc1ccccc1C(=O)NNc1c(Br)cccc1Br` showed an EC50 [1] greater than 100 µM.

`COc1ccc(C(=O)NNc2c(F)cccc2F)cc1` gave an EC50 [1] greater than 100 µM.

Compound `CCOc1ccc(C(=O)NNc2ccc(Br)cc2Br)cc1` has an EC50 [1] greater than 100 µM.

Work on `O=C(NNc1c(Br)cccc1Br)c1ccc(-c2ccccc2)cc1` yielded an EC50 [1] of 0.083 µM.

For `NC(=O)c1nc(F)cnc1O`, the Activity [4] was “Active”.

For `CN(C)c1ccc(C(=O)NNc2c(Br)cc(Br)cc2Br)cc1`, the EC50 [1] was 0.23 µM.

Work on `O=C(NNc1c(Br)cccc1Br)c1ccc2ncccc2c1` yielded an EC50 [1] of 24 µM.

`CC(C)(C)c1ccc(C(=O)NNc2c(Br)cccc2Br)cc1` showed an EC50 [1] of 0.037 µM.
